The results in this text go back to ChEMBL document CHEMBL6127047, “Nitrogen-containing heterocyclic drug products approved by the FDA in 2023: Synthesis and biological activity” (Eur J Med Chem, 2024).

Where a SMILES comes first, the peptide text is derived from it. [ ]: non-standard residue; d: D form. αMeP = C[C@@]1(C(=O)O)CCCN1

A short description of data set [1]: clinical. As to conditions: human, in vivo, po.
Description: Oral bioavailability in human
The target in data set [2] is T1, Tyrosine-protein kinase BTK (Homo sapiens, UniProt Q06187).
T1 sequence (Q06187 whole entry): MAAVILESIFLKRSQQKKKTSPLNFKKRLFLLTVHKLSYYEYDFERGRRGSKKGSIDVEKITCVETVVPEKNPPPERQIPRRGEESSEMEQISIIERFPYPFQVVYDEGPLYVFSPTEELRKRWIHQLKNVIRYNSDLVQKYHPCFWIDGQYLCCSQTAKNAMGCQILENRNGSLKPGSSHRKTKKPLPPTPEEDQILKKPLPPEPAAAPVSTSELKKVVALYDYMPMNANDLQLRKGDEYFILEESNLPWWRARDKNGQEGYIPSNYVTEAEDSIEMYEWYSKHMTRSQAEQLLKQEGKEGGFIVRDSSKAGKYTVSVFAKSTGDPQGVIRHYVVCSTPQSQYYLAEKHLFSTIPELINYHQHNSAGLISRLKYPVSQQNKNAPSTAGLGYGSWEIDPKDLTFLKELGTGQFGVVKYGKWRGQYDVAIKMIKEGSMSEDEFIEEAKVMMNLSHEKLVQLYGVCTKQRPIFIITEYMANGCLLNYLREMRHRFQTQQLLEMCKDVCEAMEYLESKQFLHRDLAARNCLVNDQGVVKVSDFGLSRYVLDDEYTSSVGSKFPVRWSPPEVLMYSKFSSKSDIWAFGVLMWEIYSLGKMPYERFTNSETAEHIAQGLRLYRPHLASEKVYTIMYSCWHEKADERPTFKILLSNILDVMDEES
Description: Inhibition of wild type BTK (unknown origin) stably transfected in HEK293 cells
Data set [3] deals with T1, Tyrosine-protein kinase BTK. This is another data set of the same source.
Description: Inhibition of wild type BTK (unknown origin)
Data set [4] is described as follows: clinical. Particulars: human.
Data set [5] is described as follows: Cmax in human. It is filed as ADME.
Data set [6] in a line: AUC in human. Format: ADME.
Data set [7] in a line: Apparent volume of distribution at steady state in human at 200 mg. As to conditions: read-out: Vdss(app). Format: ADME.
Data set [8] can be described thus: Plasma protein binding in human. It is filed as ADME, cell-free. Particulars: read-out: PPB.
A short description of data set [9]: Cmax in human at 200 mg. Format: ADME.
Data set [10] addresses Receptor-type tyrosine-protein kinase FLT3 (Homo sapiens, UniProt P36888, ITD). Format: cell-based, MV4-11.
The target of a further data set is T2, Neuromedin-K receptor (Homo sapiens, UniProt P29371).
T2 sequence (P29371 whole entry): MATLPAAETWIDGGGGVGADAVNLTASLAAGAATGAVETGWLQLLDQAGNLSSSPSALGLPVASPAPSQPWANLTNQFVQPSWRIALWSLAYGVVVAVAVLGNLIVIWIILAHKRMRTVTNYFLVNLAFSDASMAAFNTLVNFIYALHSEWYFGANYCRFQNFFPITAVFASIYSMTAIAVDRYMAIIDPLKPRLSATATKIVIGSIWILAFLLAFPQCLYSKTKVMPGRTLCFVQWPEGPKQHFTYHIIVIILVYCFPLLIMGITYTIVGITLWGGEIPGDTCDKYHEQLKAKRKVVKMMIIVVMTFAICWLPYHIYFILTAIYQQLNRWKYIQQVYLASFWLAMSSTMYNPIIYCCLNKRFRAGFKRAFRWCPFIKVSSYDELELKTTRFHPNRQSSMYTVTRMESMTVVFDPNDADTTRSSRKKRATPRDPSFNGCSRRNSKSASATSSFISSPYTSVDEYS

The nature of data set [11]: clinical. As to conditions: human. The source holds these as a separate data set.
Data set [12] is described as follows: clinical. Particulars: human, in vivo, po. This is another data set of the same source.
The target of the next data set is CYP3A4 (Homo sapiens, UniProt P08684). Kind of data set: Inhibition of CYP3A4 (unknown origin) at 10 uM relative to control. Format: ADME.
Sequence of CYP3A4 (P08684 whole entry): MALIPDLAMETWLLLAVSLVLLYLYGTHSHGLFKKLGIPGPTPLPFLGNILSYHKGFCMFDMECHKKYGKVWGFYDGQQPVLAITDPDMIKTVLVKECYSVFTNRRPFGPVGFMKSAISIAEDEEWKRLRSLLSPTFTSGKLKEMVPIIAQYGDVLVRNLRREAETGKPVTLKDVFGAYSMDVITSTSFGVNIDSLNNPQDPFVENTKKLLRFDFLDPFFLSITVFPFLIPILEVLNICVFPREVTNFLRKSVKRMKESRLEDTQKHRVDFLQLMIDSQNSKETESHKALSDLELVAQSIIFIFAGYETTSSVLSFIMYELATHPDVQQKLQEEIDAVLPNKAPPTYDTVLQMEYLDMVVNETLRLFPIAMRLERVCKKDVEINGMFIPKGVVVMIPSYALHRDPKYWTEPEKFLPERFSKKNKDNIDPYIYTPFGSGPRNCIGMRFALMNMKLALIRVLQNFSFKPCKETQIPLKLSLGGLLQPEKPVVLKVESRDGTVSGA
The nature of another data set: in vivo. Particulars: mouse, iv, 3 mg/kg.

Sequence of Receptor-type tyrosine-protein kinase FLT3 (P36888 whole entry, looked up, change not shown): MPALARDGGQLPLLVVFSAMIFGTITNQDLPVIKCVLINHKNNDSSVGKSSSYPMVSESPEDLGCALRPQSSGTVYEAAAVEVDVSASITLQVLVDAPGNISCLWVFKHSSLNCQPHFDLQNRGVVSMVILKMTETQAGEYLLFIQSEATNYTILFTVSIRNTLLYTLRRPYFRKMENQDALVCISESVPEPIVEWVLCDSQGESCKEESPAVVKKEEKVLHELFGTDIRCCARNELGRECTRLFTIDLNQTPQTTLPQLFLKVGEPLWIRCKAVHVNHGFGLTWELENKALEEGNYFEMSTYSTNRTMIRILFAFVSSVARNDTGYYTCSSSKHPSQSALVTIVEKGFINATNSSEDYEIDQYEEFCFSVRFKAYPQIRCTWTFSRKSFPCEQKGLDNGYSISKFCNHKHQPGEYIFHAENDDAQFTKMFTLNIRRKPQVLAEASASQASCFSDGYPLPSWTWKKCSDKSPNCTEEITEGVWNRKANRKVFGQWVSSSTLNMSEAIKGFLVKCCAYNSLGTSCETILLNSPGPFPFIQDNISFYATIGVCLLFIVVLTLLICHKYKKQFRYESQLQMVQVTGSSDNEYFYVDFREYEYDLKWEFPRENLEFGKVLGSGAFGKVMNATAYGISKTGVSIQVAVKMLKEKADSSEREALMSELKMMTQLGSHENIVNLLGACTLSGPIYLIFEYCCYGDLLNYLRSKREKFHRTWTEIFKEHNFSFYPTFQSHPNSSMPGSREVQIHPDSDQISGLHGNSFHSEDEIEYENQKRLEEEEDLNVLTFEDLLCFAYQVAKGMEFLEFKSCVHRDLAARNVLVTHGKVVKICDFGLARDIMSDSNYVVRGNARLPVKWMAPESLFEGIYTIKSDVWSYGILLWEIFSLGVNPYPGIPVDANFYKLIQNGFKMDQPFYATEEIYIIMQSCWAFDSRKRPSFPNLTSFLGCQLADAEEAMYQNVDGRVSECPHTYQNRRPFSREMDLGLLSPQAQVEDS
Description for Neuromedin-K receptor: Binding affinity to human recombinant NK3R assessed as inhibition constant

`C=CC(=O)N1C[C@H](Nc2ncnc3[nH]ccc23)CC[C@@H]1C` [RITLECITINIB] came in with a bioavailability in “clinical [1]” of 64%.

As to `COc1ccc(F)cc1C(=O)NCc1ccc(-c2nn([C@H](C)C(F)(F)F)c(N)c2C(N)=O)cc1`, in the data set “clinical [1]”, the bioavailability is 85.5%. The IC50 was found to be 21.2 nM in [2] and 5.69 nM in data set [3]. Besides, the half-life in “clinical [4]” is 19 h.

`CCC[C@H](N[C@H]1CCc2cc(F)cc(F)c2C1)C(=O)Nc1cn(C(C)(C)CNCC(C)(C)C)cn1` [NIROGACESTAT] gave a Cmax in data set [5] of 508 ng/mL. This compound yielded an AUC in [6] of 3370 ng·h/mL. In the data set “clinical [1]”, this compound had a bioavailability of 19%.

In the case of `N#CCNC(=O)c1ccc(-c2ccnc(Nc3ccc(N4CCOCC4)cc3)n2)cc1` [MOMELOTINIB], the Vd in data set [7] was found to be 984 L. For the same compound, the fraction unbound in data set [8] was 0.09. In data set [9], the peak level (Cmax) was 479 ng/mL.

`CC(C)(C)c1cc(NC(=O)Nc2ccc(-c3cn4c(n3)sc3cc(OCCN5CCCCC5)ccc34)cc2)no1`: the IC50 in data set [10] amounted to 0.88 nM.

`Cc1nsc(-c2nnc3n2CCN(C(=O)c2ccc(F)cc2)[C@@H]3C)n1` [FEZOLINETANT] gave a Ki at Neuromedin-K receptor of 21.8 nM. Besides, in “clinical [11]”, the Vd worked out at 189 L. The compound further registered a Cmax in “clinical [12]” of 1.5 ng/mL. Besides, the half-life in the data set “clinical [4]” is 9.6 h.

In the case of `CC1(C)CCC(C)(C)c2cc(Cn3cccn3)c(/C=C/c3ccc(C(=O)O)cc3)cc21` [PALOVAROTENE], on CYP3A4, at 10 µM the inhibition was 99%.

For the compound `C[C@@]1(C(=O)N[C@@H](CCC(=O)O)C(=O)O)CCCN1C(=O)CN` [TROFINETIDE] (H-Gly-[αMeP]-Glu-OH), the half-life in the data set “in vivo” is 1.5 h.

Consider `CC(C)(C)c1cc(NC(=O)Nc2ccc(-c3cn4c(n3)sc3cc(OCCCN5CCOCC5)ccc34)cc2)no1`, for which the IC50 in [10] was 0.79 nM. That is a sub-nanomolar value.
